The values below come from article PMC9359617 (Nature structural & molecular biology, 2022).

Data set [1] deals with T1, CaChs2 (Candida albicans, UniProt P30572).
T1 sequence (P30572 1-1009): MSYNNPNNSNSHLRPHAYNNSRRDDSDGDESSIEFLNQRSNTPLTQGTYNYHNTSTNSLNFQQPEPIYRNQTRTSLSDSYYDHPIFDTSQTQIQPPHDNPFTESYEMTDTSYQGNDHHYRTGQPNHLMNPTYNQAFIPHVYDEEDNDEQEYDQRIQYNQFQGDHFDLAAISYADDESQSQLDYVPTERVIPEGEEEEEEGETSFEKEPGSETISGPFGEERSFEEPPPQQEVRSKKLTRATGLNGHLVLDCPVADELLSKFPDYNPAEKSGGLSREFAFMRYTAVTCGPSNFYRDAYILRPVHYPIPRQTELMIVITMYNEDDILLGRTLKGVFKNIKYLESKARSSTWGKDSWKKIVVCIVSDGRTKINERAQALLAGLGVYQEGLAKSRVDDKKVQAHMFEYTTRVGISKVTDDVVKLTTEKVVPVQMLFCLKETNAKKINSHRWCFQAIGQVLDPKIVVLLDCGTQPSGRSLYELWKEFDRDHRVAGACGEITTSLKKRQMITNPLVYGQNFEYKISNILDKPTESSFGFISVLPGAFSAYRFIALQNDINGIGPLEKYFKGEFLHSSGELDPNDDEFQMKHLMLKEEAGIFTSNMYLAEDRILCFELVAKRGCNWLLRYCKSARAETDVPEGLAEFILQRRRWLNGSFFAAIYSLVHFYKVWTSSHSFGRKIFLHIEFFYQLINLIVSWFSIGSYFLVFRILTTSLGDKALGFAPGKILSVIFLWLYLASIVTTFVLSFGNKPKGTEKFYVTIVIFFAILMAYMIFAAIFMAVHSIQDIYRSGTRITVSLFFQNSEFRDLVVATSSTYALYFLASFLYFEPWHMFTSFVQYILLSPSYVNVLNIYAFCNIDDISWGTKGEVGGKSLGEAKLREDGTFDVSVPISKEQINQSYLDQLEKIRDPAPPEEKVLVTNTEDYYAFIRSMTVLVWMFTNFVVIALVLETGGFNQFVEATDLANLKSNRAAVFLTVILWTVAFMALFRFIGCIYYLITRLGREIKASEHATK
As to the kind of experiment: CaChs2 activity assay. The format is biochemical. The settings on record: purified recombinant CaChs2; formation of water-insoluble chitin polymers from UDP-GlcNAc.

For data set [2], the target named is T1, CaChs2. Description: CaChs2 inhibition assay. The format is biochemical.
Data set [3] concerns the target CaChs2 WT (Candida albicans, UniProt P30572). As to the kind of experiment: Isothermal titration calorimetry, CaChs2 WT. The format is binding. A general note: In ITC the heat of successive injections is recorded.
The test system of data set [4] is CaChs2 W647A. As to the kind of experiment: Isothermal titration calorimetry, CaChs2 W647A. The data set is classed as binding, Candida albicans. The settings on record: ITC.
In data set [5] the target is CaChs2 Q643A (Candida albicans, UniProt P30572, Q643A). Description: Isothermal titration calorimetry, CaChs2 Q643A. The data set is classed as binding. The settings on record: Q643A mutant, ITC.
For data set [6], the system named is C. albicans. The settings on record: against C. albicans; lower end printed as < 0.5; cited from earlier work.
Data set [7] concerns CaChs2 T631A. As to the kind of experiment: CaChs2 inhibition assay, T631A mutant. The settings on record: alanine mutation of T631. The format is biochemical, Candida albicans.
Data set [8] concerns the molecule itself. As to the kind of experiment: cryo-EM structure.

As usually defined, the Km is the concentration of substrate that gives half-maximal velocity. By Ki is commonly meant a measure of affinity in units of concentration, obtained from inhibition or displacement. For orientation: Kd means the constant that tells how readily two partners part at equilibrium. Low values mean a tighter complex, high ones a looser complex. One may read the MIC80 as an inhibitory concentration at the 80% level, which refers to growth in some studies and to a panel of isolates in others. By stoichiometry N is commonly meant the number of molecules, sites or subunits per partner or assembly.

Like-named read-outs stand apart in the source and are kept apart here.

With `CC(=O)N[C@H]1[C@@H](OP(=O)(O)OP(=O)(O)OC[C@H]2O[C@@H](n3ccc(=O)[nH]c3=O)[C@H](O)[C@@H]2O)O[C@H](CO)[C@@H](O)[C@@H]1O` [UDP-GlcNAc], in data set [1], the Km was determined as 6 ± 0.7 mM and the kcat is 8.6 ± 2.7 min−[1].
Turning to `C[C@@H]([C@H](N)C(=O)N[C@H](C(=O)O)[C@H]1O[C@@H](n2ccc(=O)[nH]c2=O)[C@H](O)[C@@H]1O)[C@H](O)c1ccc(O)cn1` [nikkomycin Z], the Ki in data set [2] turned out to be 1500 ± 500 nM. Also, in data set [2] (affinity of nikkomycin Z to CaChs2 compared with UDP-GlcNAc), the “difference between Ki of the inhibitor and Km of UDP-GlcNAc” value is given as “three orders of magnitude”. In data set [3], this molecule displayed a dissociation constant Kd of roughly 190 nM. For the same molecule, the “reduction of affinity to nikkomycin Z, mutant vs WT” value in data set [4] is reported as “about 18 fold”. For the same molecule, in data set [5], the “effect of the mutation on affinity to nikkomycin Z” value is recorded as “only moderately affects the affinity”. In data set [6], the MIC80 is 0.5 to 32 µg/mL.
In turn, `NC(=O)OC[C@H](O)[C@@H](O)[C@H](N)C(=O)N[C@H](C(=O)O)[C@H]1O[C@@H](n2cc(C(=O)O)c(=O)[nH]c2=O)[C@H](O)[C@@H]1O` [polyoxin D] had an inhibitory constant (Ki) in data set [2] (purified CaChs2) of 3200 ± 1400 nM. The “decrease of affinity for polyoxin D, mutant vs WT” value in data set [7] is recorded as “about threefold”.

B1: Chs2 from Candida albicans (CaChs2), wild type (enzyme, UniProt P30572 1-1009, looked up)
chain: MSYNNPNNSNSHLRPHAYNNSRRDDSDGDESSIEFLNQRSNTPLTQGTYNYHNTSTNSLNFQQPEPIYRNQTRTSLSDSYYDHPIFDTSQTQIQPPHDNPFTESYEMTDTSYQGNDHHYRTGQPNHLMNPTYNQAFIPHVYDEEDNDEQEYDQRIQYNQFQGDHFDLAAISYADDESQSQLDYVPTERVIPEGEEEEEEGETSFEKEPGSETISGPFGEERSFEEPPPQQEVRSKKLTRATGLNGHLVLDCPVADELLSKFPDYNPAEKSGGLSREFAFMRYTAVTCGPSNFYRDAYILRPVHYPIPRQTELMIVITMYNEDDILLGRTLKGVFKNIKYLESKARSSTWGKDSWKKIVVCIVSDGRTKINERAQALLAGLGVYQEGLAKSRVDDKKVQAHMFEYTTRVGISKVTDDVVKLTTEKVVPVQMLFCLKETNAKKINSHRWCFQAIGQVLDPKIVVLLDCGTQPSGRSLYELWKEFDRDHRVAGACGEITTSLKKRQMITNPLVYGQNFEYKISNILDKPTESSFGFISVLPGAFSAYRFIALQNDINGIGPLEKYFKGEFLHSSGELDPNDDEFQMKHLMLKEEAGIFTSNMYLAEDRILCFELVAKRGCNWLLRYCKSARAETDVPEGLAEFILQRRRWLNGSFFAAIYSLVHFYKVWTSSHSFGRKIFLHIEFFYQLINLIVSWFSIGSYFLVFRILTTSLGDKALGFAPGKILSVIFLWLYLASIVTTFVLSFGNKPKGTEKFYVTIVIFFAILMAYMIFAAIFMAVHSIQDIYRSGTRITVSLFFQNSEFRDLVVATSSTYALYFLASFLYFEPWHMFTSFVQYILLSPSYVNVLNIYAFCNIDDISWGTKGEVGGKSLGEAKLREDGTFDVSVPISKEQINQSYLDQLEKIRDPAPPEEKVLVTNTEDYYAFIRSMTVLVWMFTNFVVIALVLETGGFNQFVEATDLANLKSNRAAVFLTVILWTVAFMALFRFIGCIYYLITRLGREIKASEHATK
Consider B1, for which the “stoichiometry N” value in data set [8] is 2.
